Test results taken from patent publication US8679765B2, “Methods and compositions for diagnosis and treatment of malignant and non-malignant gammopathies” (Ludwig Institute for Cancer Research Ltd., priority 2009, dated 2014).
Blank lines part the entries; values can stand above or below the molecule they belong to.

Tests used:
[1] = biological target: hyperphosphorylation of Paratarg; test: Inhibition experiments: LCLs cultured with kinase inhibitors, IEF and immunodetection with anti-STOML2; format: cell-based, human; conditions: IEF analysis; for effect on hyperphosphorylation of paratarg: LCLs of healthy donors or patients
Description: LCLs derived from healthy donors or patients were cultured in the presence of the kinase inhibitors at the indicated concentrations. Lysates were analysed by IEF and immunodetected with anti-STOML2. A shown in this figure, hyperphosphorylation is inhibited by staurosporine, ellagic acid and wortmannin. […] Using BIM_I and Rottlerin, PKC isoform delta or zeta could be identified as responsible for hyperphosphorylation. • a) Same as b), but with other concentrations of the inhibitors.
LCLs were established by infection of PBMCs with EBV as described by Neumann et al (Blood 2005; 106:3105-13).
Stably transfected cell lines were cultured in the presence of inhibitory compounds as indicated. After 5 d cells were removed and analysed by IEF and immunodetection.
In MGUS/MM patients and their relatives hyperphosphorylated paratarg is expressed constitutively, while hyperphosphorylation of paratarg is temporary in all healthy persons and cell lines analysed. This was seen by culturing LCLs and cell lines in the presence of kinase or phosphatase inhibitors. The identification of Ser17 as the differential phosphorylation site led to the prediction of a […] (PKC) responsible for hyperphosphorylation. Culturing of LCLs and cell lines in the presence of suitable inhibitors (staurosporine, Wortmannin, Bisindolylmaleimid I) at concentrations as indicated below and followed by IEF analysis identifies the PKCzeta isoform as the active kinase (summarized in FIG. 16). This was verified by using highly specific PKCzeta pseudosubstrate as inhibitor (FIG. 16d). […] (FIG. 18).

[2] = test system: paraproteins of serum pool #1 (MGUS/MM patients' sera); test: Serum profiling on high density protein arrays (paraprotein screening of hEx1 human fetal brain macroarray); format: binding; parameters: key: Paraprotein-binding quality/strength are ++, + and ±.; Paraprotein-binding quality/strength are ++, + and ±.; Paraprotein-binding quality/strength are ++, + and ±; conditions: serum pool #1 (n=114), each serum diluted 1:10^8
Description: Screening analyses were performed on hEx1 high-density protein expression cDNA libraries, created in Hans Lehrach's laboratory at the Max Planck Institute for Molecular Genetics in Berlin (Germany) and obtained from the Reference Center of the German Human Genome Project (RZPD) (Bussow et al, 1998). These high-density filter membranes display proteins that were expressed from a modified pQE protein expression vector (Qiagen). This vector featured a hexahistidine tag, a T5 promoter and two lac operator sequences, which allowed repression during the growth phase by overexpression of the Lac repressor protein, and subsequent induction of protein expression with isopropyl-beta-D-thiogalactopyranoside (IPTG).
High density protein arrays of the protein expression set of the hEx1 library were obtained from the German Resource Center for Genome Research (RZPD) and provided by Dr. Mahlknecht from our department. They consist of 37,200 independent clones derived from a human fetal brain cDNA expression library and were used for autoantibody detection. For serum profiling, the filters were blocked in 10% (w/v) non-fat, dry milk powder in TBST (TBS, 0.1% (v/v) Tween 20) at 4° C. overnight, washed twice in TBST, and incubated for 1 h with serum pool #1 at a dilution of 1:10^8 for each serum. Following three 30-min TBST washes and subsequent incubation with the secondary antibody (goat anti-human IgG biotinylated, Dianova, diluted 1:2.500) and Strep-PDX (1:15.000) in 2% (w/v) Milk/TBST, the filters were washed three times for 30 min in TBST. This was followed by detection using Pharmacia ECL system. Positive signals were localized according to the manufacturer's protocol. Corresponding clones were obtained from RZPD.
In this study we screened a human high-density protein array containing 37,200 independent recombinant proteins derived from a human fetal brain expression library with sera obtained from patients with monoclonal gammopathy of undetermined significance (MGUS) and multiple myeloma (MM).
The signal pattern obtained from the screening with the paraprotein pools at a dilution of 1:10^8 were compared with the patterns obtained from screening with the control sera from clinically healthy donors and to background incubations. […] 5′- and 3′-tag sequencing of these clones was performed, and their sequences were used for BLAST searches against public databases at NCBI.
Using serum pool #1 (paraprotein type: 15 IgA, 88 IgG, 11 oligoclonal, n=114) we identified 14 putative paraprotein targets on the human protein filter array (FIG. 1, Tab. 1). […] Sequence searches and comparisons using the in-frame sequences identified five known proteins and one unknown gene product derived from chromosome 8.

Molecule: CN(C)CCCn1cc(C2=C(c3c[nH]c4ccccc34)C(=O)NC2=O)c2ccccc21 [BIM_I, Bisindolylmaleimid I]
kinase identified by inhibition of paratarg hyperphosphorylation ([1]; LCLs, BIM_I at 6 μM): clearly identified PKCzeta as the kinase responsible

effect on hyperphosphorylation of paratarg [1]: inhibited
Molecule: O=c1oc2c(O)c(O)cc3c(=O)oc4c(O)c(O)cc1c4c23 [ellagic acid]

Molecule: CN[C@@H]1C[C@H]2O[C@@](C)([C@@H]1OC)n1c3ccccc3c3c4c(c5c6ccccc6n2c5c31)C(=O)NC4 [staurosporine]
effect on hyperphosphorylation of paratarg [1]: inhibited

Signal-quality (paraprotein-binding quality/strength) [2]: ±
B1: MPMGp800J11592: RZPD clone, NM_001294.1 (protein, UniProt O96005 2-669, looked up)
Putative lipid scramblase …: AAAQEADGARSAVVAAGGGSSGQVTSNGSIGRDPPAETQPQNPPAQPAPNAWQVIKGVLFRIFIIWAISSWFRRGPAPQDQAGPGGAPRVASRNLFPKDTLMNLHVYISEHEHFTDFNATSALFWEQHDLVYGDWTSGENSDGCYEHFAELDIPQSVQQNGSIYIHVYFTKSGFHPDPRQKALYRRLATVHMSRMINKYKRRRFQKTKNLLTGETEADPEMIKRAEDYGPVEVISHWHPNITINIVDDHTPWVKGSVPPPLDQYVKFDAVSGDYYPIIYFNDYWNLQKDYYPINESLASLPLRVSFCPLSLWRWQLYAAQSTKSPWNFLGDELYEQSDEEQDSVKVALLETNPYLLALTIIVSIVHSVFEFLAFKNDIQFWNSRQSLEGLSVRSVFFGVFQSFVVLLYILDNETNFVVQVSVFIGVLIDLWKITKVMDVRLDREHRVAGIFPRLSFKDKSTYIESSTKVYDDMAFRYLSWILFPLLGCYAVYSLLYLEHKGWYSWVLSMLYGFLLTFGFITMTPQLFINYKLKSVAHLPWRMLTYKALNTFIDDLFAFVIKMPVMYRIGCLRDDVVFFIYLYQRWIYRVDPTRVNEFGMSGEDPTAAAPVAEVPTAAGALTPTPAPTTTTATREEASTSLPTKPTQGASSASEPQEAPPKPAEDKKKD

Signal-quality (paraprotein-binding quality/strength) [2]: ++
B2: MPMGp800B22602: RZPD clone, NM_006762.1 (protein)
chain: MDPRLSTVRQTCCCFNVRIATTALAIYHVIMSVLLFIEHSVEVAHGKASCKLSQMGYLRIADLISSFLLITMLFIISLSLLIGVVKNREKYLLPFLSLQIMDYLLCLLTLLGSYIELPAYLKLASRSRASSSKFPLMTLQLLDFCLSILTLCSSYMEVPTYLNFKSMNHMNYLPSQEDMPHNQFIKMMIIFSIAFITVLIFKVYMFKCVWRCYRLIKCMNSVEEKRNSKMLQKVVLPSYEEALSLPSKTPEGGPAPPPYSEV
